Reference: patent US20250164502A1, “Mutant Human Nax Proteins and Screening Methods” (Genentech, Inc., priority 2021, published 2025)
Where two headings read alike, the source gives them in different places.

Key:
Xenopus laevis oocytes [1] = experiment: Voltage dependence of activation and steady-state inactivation of mutant NaV channels; assay type: cell-based; conditions: NaV1.7 mutant
human NaX-QTT [2] = biological target: T1, human NaX-QTT (Homo sapiens, UniProt Q01118, F724Q/I1189T/I1492T); experiment: Two-electrode voltage-clamp of Xenopus laevis oocytes expressing human NaX-QTT with blockers or multivalent cations; assay type: cell-based
T1 construct: expressed in transfected cells; host or cells: Xenopus laevis oocytes injected with in vitro transcribed capped RNA
T1 sequence (Q01118 whole entry F724Q/I1189T/I1492T): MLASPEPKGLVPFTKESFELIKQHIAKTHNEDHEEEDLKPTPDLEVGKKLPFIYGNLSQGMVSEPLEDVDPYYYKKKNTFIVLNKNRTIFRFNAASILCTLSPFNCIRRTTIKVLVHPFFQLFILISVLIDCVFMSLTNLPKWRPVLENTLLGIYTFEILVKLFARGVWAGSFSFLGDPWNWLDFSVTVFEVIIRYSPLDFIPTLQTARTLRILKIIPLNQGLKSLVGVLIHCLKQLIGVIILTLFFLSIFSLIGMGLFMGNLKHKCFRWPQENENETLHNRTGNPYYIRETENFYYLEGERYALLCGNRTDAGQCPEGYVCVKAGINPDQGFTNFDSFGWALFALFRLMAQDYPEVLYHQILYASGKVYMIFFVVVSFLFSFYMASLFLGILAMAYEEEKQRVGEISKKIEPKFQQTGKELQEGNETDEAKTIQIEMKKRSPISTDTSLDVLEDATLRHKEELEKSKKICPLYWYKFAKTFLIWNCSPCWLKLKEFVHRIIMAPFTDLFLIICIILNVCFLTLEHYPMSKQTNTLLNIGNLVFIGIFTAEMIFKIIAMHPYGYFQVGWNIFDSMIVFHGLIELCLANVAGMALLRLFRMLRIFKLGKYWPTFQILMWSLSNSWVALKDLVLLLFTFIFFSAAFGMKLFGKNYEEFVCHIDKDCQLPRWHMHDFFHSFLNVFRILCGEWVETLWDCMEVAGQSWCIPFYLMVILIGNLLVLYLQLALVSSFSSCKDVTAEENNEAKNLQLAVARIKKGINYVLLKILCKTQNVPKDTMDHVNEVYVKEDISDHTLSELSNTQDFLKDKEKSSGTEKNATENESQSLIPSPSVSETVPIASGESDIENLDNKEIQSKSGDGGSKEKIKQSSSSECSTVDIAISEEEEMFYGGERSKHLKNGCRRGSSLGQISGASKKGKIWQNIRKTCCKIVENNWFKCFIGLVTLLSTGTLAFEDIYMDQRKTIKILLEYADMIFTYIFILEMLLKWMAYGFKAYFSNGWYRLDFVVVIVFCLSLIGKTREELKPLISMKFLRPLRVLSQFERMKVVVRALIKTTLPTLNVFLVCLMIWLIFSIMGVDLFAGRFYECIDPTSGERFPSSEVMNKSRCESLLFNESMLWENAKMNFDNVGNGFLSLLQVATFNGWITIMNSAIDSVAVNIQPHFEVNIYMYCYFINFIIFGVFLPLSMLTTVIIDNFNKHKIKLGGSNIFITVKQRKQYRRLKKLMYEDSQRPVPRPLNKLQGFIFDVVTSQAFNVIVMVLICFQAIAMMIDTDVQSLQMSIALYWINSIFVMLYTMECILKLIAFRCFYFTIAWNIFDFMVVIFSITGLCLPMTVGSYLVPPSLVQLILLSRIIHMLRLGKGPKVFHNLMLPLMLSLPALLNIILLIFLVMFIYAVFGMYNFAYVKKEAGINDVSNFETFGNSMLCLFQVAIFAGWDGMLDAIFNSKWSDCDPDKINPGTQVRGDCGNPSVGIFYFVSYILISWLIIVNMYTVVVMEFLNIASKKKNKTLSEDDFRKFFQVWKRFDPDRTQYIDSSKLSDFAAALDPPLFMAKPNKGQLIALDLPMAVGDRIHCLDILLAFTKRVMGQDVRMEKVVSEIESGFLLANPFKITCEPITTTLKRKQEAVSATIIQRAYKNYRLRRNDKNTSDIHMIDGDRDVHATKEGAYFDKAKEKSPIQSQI
Method: (§1) FIGS. 5A-C show pharmacology of the human NaX-QTT channel. FIG. 5A, left and middle panels, show representative I-V currents from HEK293 cells expressing human NaX-QTT with indicated extracellular monovalent cations with or without indicated amounts of CaCl2 in the extracellular solution. Voltage ramp from −80 to +80 mV was applied.
(§2) Oocytes were prepared as previously described^68. Healthy-looking stage V-VI oocytes were injected with 2.5-40 ng of RNA (in 5-41 nL) using a Nanoliter 2010 injector (World Precision Instruments). When excluding one or more construct, an equivalent volume of nuclease-free water was added to maintain a constant RNA concentration across different construct combinations. Injected oocytes were kept at 18° C., 140 rpm, in ND96 supplemented with 50 μg/mL gentamicin and 50 μg/mL tetracycline (in mM: 96 NaCl, 2 KCl, 1 MgCl2, 1.8 CaCl2), 2.5 sodium pyruvate, 0.5 theophylline, 5 HEPES; pH 7.4 with NaOH) for two to five days. Two-electrode voltage-clamp measurements were performed at room temperature using a Warner OC-725C Oocyte Clamp amplifier (Warner Instrument Corp, USA) and under constant perfusion with ND96 solution (in mM: 96 NaCl, 2 KCl, 1 MgCl2, 1.8 CaCl2, 5 HEPES; pH 7.4 with NaOH). For ion selectivity experiments, external solutions contained 115 mM of test cations as chloride salts, 1.2 mM CaCl2, 2 mM MgCl2, 5 mM HEPES (pH 7.4 with the corresponding hydroxide). Data acquisition was performed using a Digidata 1550 digitizer (Molecular devices; sampled at 10 kHz) and pCLAMP 10 software (Molecular Devices). Microelectrodes from borosilicate glass capillaries (Harvard Apparatus) were prepared to have resistances around 0.2-1.0 MQ2 using a P-1000 Flaming/Brown Micropipette Puller System (Sutter Instrument) and backfilled with 3 M KCl. Aconitine and veratridine (Alomone Labs) were dissolved in DMSO to make 50 mM stocks, and were further diluted to 300 and 100 μM in ND96 for electrophysiological experiments. Other NaV activators (Alomone Labs; FIGS. 8A-D) were dissolved in water to make stock solutions. The voltage dependence of ion current was determined using a protocol consisting of steps from a holding potential of 0 mV to voltages ranging from +80 to −100 mV for 1 s in 20 mV increment.

Xenopus laevis oocytes [3] = experiment: Current amplitude of Xenopus laevis oocytes expressing the constructs (function of construct); assay type: cell-based; conditions: voltage-step protocols
Method: (*p<0.05; **p<0.01; ****p<0.0001; one-way ANOVA, Dunnett's test against NaX.)
as §2, with “Data acquisition was performed using a Digidata 1550 digitizer (Molecular devices; sampled at 10 kHz) and pCLAMP 10 software (Molecular Devices). Microelectrodes from borosilicate glass capillaries (Harvard Apparatus) were prepared to have resistances around 0.2-1.0 MQ2 using a P-1000 Flaming/Brown Micropipette Puller System (Sutter Instrument) and backfilled with 3 M KCl. Aconitine and veratridine (Alomone Labs) were dissolved in DMSO to make 50 mM stocks, and were further diluted to 300 and 100 μM in ND96 for electrophysiological experiments. Other NaV activators (Alomone Labs; FIGS. 8A-D) were dissolved in water to make stock solutions.” left out, “increment. […]” for “increment.”

HEK293T cells = experiment: Whole-cell patch clamp of HEK293T cells expressing NaX-QTT, reversal potential and ion selectivity; assay type: cell-based, human
Method: (§3) HEK293T cells expressing NaX- or NaX-QTT-eGFP-2×FLAG were seeded on glass cover slips an hour before whole-cell patch-clamping experiments. For a more physiological condition (FIGS. 4D and 7B), the extracellular solution contained 150 mM NaCl, 5 mM KCl, 0.5 mM CaCl2, 1.2 mM MgCl2, 10 mM HEPES, and 13 mM D-(+)-glucose (pH 7.4) with NaOH, ˜320 mOsm/L, and the intracellular solution contained 140 mM CsCl, 10 mM CsF, 5 mM EGTA, 10 mM HEPES, and 2 mM Na2ATP (pH 7.2) with CsOH, ˜304 mOsm/L. To determine if NaX-QTT was cation-permeable, we first substituted all extracellular cations with NMDG^+ (FIG. 4E). Extracellular solution contained 150 mM NMDG and 10 mM HEPES (D-(+)-glucose was added accordingly to achieve osmolarity ˜325 mOsm/L and pH was adjusted to 7.4 with hydrochloric acid). To determine if NaX-QTT was anion-permeable, we substituted all Cl^− ions in both intra- and extracellular solutions with the large anion methanesulfonate (MS^−) (FIG. 15C). The extracellular solution contained 150 mM NaMS and 10 mM HEPES (D-(+)-glucose was added accordingly to achieve osmolarity ˜325 mOsm/L, and pH was adjusted to 7.4 with NaOH). The intracellular solution contained 136 mM NaMS, 10 mM NaF, 5 mM EGTA, 10 mM HEPES, and 2 mM Na2ATP (pH 7.2 with NaOH, ˜309 mOsm/L). The extracellular NMDG solution contained 150 NMDG and 10 mM HEPES (D-(+)-glucose was added accordingly to achieve osmolarity ˜325 mOsm/L, and pH was adjusted to 7.4 with methanesulfonic acid).
For ion-selectivity experiments (FIGS. 4E and 5A) (i) involving monovalent cations, the extracellular solution contained 150 mM XCl, 10 mM HEPES, and D-(+)-glucose was added accordingly to achieve osmolarity ˜325 mOsm/L, and the pH was adjusted to 7.4 with XOH, where X indicates the cation of interest (Na^+, K^+, Li+ or Cs+); (ii) involving Ca^2+, the extracellular solution contained 110 mM CaCl2, 10 mM HEPES, and D-(+)-glucose was added accordingly to achieve osmolarity ˜325 mOsm/L, and the pH was adjusted to 7.4 with Ca(OH)2; (iii) the intracellular solution contained 136 mM NaCl, 10 mM NaF, 5 mM EGTA, 10 mM HEPES, and 2 mM Na2ATP (pH 7.2) with NaOH, ˜309 mOsm/L.
(§4) For data analysis, raw current traces were typically filtered using 8-pole Bessel low-pass filter at 500-800 Hz. […] For ion-selectivity experiments performed with Na^+ intracellular solution (FIGS. 4E and 5A), liquid junction potential (LJP) was measured with reference to the Na^+ intracellular solution and corrected after recording. Relative ion permeabilities (PNa/PX) were calculated using the equation PX/PNa=[Na^+]IC exp(ErevF/RT)/[X^+]EC (X=Na, K, Li or Cs), where F is Faraday's constant, R is the gas constant, […], and Erevs were measured from the −80- to +80-m V ramp (corrected for LJP).

[4] = reported for pathogenic mutation; cited from earlier work
human NaX = biological target: T2, human NaX (Homo sapiens, UniProt Q01118); experiment: Two-electrode voltage-clamp of oocytes expressing human NaX with classical NaV channel activators; assay type: cell-based; conditions: different voltage-step protocols in oocytes; wild-type human NaX
T2 construct: expressed in transfected cells; host or cells: Xenopus laevis oocytes injected with in vitro transcribed capped RNA
T2 sequence (Q01118 whole entry): as the sequence (Q01118 whole entry F724Q/I1189T/I1492T) above, with Q724F, T1189I, T1492I counted along it
From the text: FIGS. 8A-D show functional evaluation of human NaX in Xenopus laevis oocytes. FIGS. 8A, left panel, and 8B, left panel, show representative currents from Xenopus laevis oocytes expressing human NaX with the indicated pharmacological modulator present in the extracellular solution. […] FIGS. 8C, left panel, and 8D, left panel, show representative currents from oocytes expressing human NaX with the indicated proteins co-expressed. FIG. 8C, right panel, show I-V plots with steps between +80 and −100 mV, in 20 mV increments, from a HP of 0 mV.
Oocytes were prepared as previously described^68. Healthy-looking stage V-VI oocytes were injected with 2.5-40 ng of RNA (in 5-41 nL) using a Nanoliter 2010 injector (World Precision Instruments). When excluding one or more construct, an equivalent volume of nuclease-free water was added to maintain a constant RNA concentration across different construct combinations. Injected oocytes were kept at 18° C., 140 rpm, in ND96 supplemented with 50 μg/mL gentamicin and 50 μg/mL tetracycline (in mM: 96 NaCl, 2 KCl, 1 MgCl2, 1.8 CaCl2), 2.5 sodium pyruvate, 0.5 theophylline, 5 HEPES; pH 7.4 with NaOH) for two to five days. […] The voltage dependence of ion current was determined using a protocol consisting of steps from a holding potential of 0 mV to voltages ranging from +80 to −100 mV for 1 s in 20 mV increment.

human NaX-QTT [5] = biological target: T1, human NaX-QTT; experiment: Whole-cell patch clamp of HEK293T cells expressing NaX-QTT, effect of extracellular Ca^2+; assay type: cell-based
Method: as §1
as §3, with “The intracellular solution contained 136 mM NaMS, 10 mM NaF, 5 mM EGTA, 10 mM HEPES, and 2 mM Na2ATP (pH 7.2 with NaOH, ˜309 mOsm/L). The extracellular NMDG solution contained 150 NMDG and 10 mM HEPES (D-(+)-glucose was added accordingly to achieve osmolarity ˜325 mOsm/L, and pH was adjusted to 7.4 with methanesulfonic acid).” left out
as §4

[6] = 1 mM, oocytes, step from 0 to +80 mV
[7] = at concentrations up to 300 μM, oocytes

## Ser1269Phe: Ser1269Phe substitution in NaV1.7
Xenopus laevis oocytes [1]
  depolarizing shift of activation: ~8 mV

## [Co+2] [Co^2+]
Human NaX-QTT [2]; [6]
  inhibition of NaX-QTT currents: inhibited

## Construct 24: triple-mutant NaX channel construct (F724Q-I1189T-I1492T) with polar substitutions at three S6-gate lining positions
Xenopus laevis oocytes [3]
  ionic currents of the construct expressed alone: robust ionic currents
HEK293T cells; HEK293T cells, all extracellular cations replaced with NMDG
  reversal potential: below −100 mV
HEK293T cells; HEK293T cells, physiological extracellular solution
  reversal potential: +5 mV
HEK293T cells; extracellular monovalent cations 150 mM
  discrimination between monovalent cations: does not effectively discriminate
HEK293T cells; symmetrical NaCl/NaCl, ramp −80 to +80 mV, 150 mM Na^+ intracellular
  reversal potential: ~0 mV

## Construct 25: L390E/I1189E/I1492E triple-mutant NaX channel construct
Xenopus laevis oocytes [3]
  ionic currents of the construct expressed alone: much lower current amplitudes

## Ser211Pro: pathogenic Ser211Pro mutation in NaV1.7
[4]
  hyperpolarization of channel activation: −12 mV

## CN(C)C(=O)C(CCN1CCC(O)(c2ccc(Cl)cc2)CC1)(c1ccccc1)c1ccccc1 [loperamide]
Human NaX-QTT [2]
  inhibition of NaX-QTT currents: equally potent inhibitors

## ΔLeu966: in-frame DII-S6 deletion in NaV1.7
Xenopus laevis oocytes [1]
  hyperpolarization of activation: −16 mV

## C=C[C@H]1C[N@@]2CC[C@H]1C[C@@H]2[C@@H](O)c1ccnc2ccc(OC)cc12 [quinidine]
Human NaX-QTT [2]; at high μM concentrations, oocytes
  inhibition of NaX-QTT currents: equally potent inhibitors

## [Zn+2] [Zn^2+]
Human NaX-QTT [2]; [6]
  inhibition of NaX-QTT currents: inhibited

## CCN1C[C@]2(COC)[C@H](O)C[C@H](OC)[C@@]34[C@@H]5C[C@@]6(O)[C@H](OC(=O)c7ccccc7)[C@@H]5[C@@](OC(C)=O)([C@@H]([C@H](OC)[C@H]23)[C@@H]14)[C@@H](O)[C@@H]6OC [aconitine]
Human NaX
  activation of human NaX-mediated currents: did not invoke any clear human NaX-mediated currents

## O=C(NCC1CCCCN1)c1cc(OCC(F)(F)F)ccc1OCC(F)(F)F (centres unmarked) [flecainide]
Human NaX-QTT [2]; [7]
  inhibition of NaX-QTT currents: strong inhibitory effects were not observed

## [Ca+2] [Ca^2+]
Human NaX-QTT [5]; HEK293T cells, extracellular CaCl2
  permeation through NaX-QTT: does not permeate
Human NaX-QTT [5]; NaX-QTT versus NaV channels
  potency of extracellular Ca^2+ block on NaX relative to traditional NaV channels: ~10 fold
Human NaX-QTT [5]; extracellular Ca^2+ 1 mM, HEK293T cells, NaX-QTT, at 80 mV
  inhibition of the outward Na^+ current: ~70%

## NC1=N[C@H](O)[C@H]2[C@H]3O[C@]4(O)O[C@@H]([C@@H](O)[C@@]2(N1)[C@@H]4O)[C@]3(O)CO [tetrodotoxin]
Human NaX-QTT [2]
  inhibitory effect on NaX-QTT: inhibitory effects

## COc1ccccc1OCC(O)CN1CCN(CC(=O)Nc2c(C)cccc2C)CC1 (centres unmarked) [ranolazine]
Human NaX-QTT [2]; [7]
  inhibition of NaX-QTT currents: strong inhibitory effects were not observed

## [Gd+3] [Gd^3+]
Human NaX-QTT [2]; trivalent cation, oocytes
  inhibition of NaX-QTT currents compared with Zn^2+ and Co^2+: more potent

## O=C1NC(=O)C(c2ccccc2)(c2ccccc2)N1 [phenytoin]
Human NaX-QTT [2]; [7]
  inhibition of NaX-QTT currents: strong inhibitory effects were not observed

B1: Ser209Phe: pathogenic Ser209Phe mutation in KCNQ1 (protein, UniProt P51787 1-676, looked up, variant S209F)
Potassium voltage-gated …: MAAASSPPRAERKRWGWGRLPGARRGSAGLAKKCPFSLELAEGGPAGGALYAPIAPGAPGPAPPASPAAPAAPPVASDLGPRPPVSLDPRVSIYSTRRPVLARTHVQGRVYNFLERPTGWKCFVYHFAVFLIVLVCLIFSVLSTIEQYAALATGTLFWMEIVLVVFFGTEYVVRLWSAGCRSKYVGLWGRLRFARKPISIIDLIVVVAFMVVLCVGSKGQVFATSAIRGIRFLQILRMLHVDRQGGTWRLLGSVVFIHRQELITTLYIGFLGLIFSSYFVYLAEKDAVNESGRVEFGSYADALWWGVVTVTTIGYGDKVPQTWVGKTIASCFSVFAISFFALPAGILGSGFALKVQQKQRQKHFNRQIPAAASLIQTAWRCYAAENPDSSTWKIYIRKAPRSHTLLSPSPKPKKSVVVKKKKFKLDKDNGVTPGEKMLTVPHITCDPPEERRLDHFSVDGYDSSVRKSPTLLEVSMPHFMRTNSFAEDLDLEGETLLTPITHISQLREHHRATIKVIRRMQYFVAKKKFQQARKPYDVRDVIEQYSQGHLNLMVRIKELQRRLDQSIGKPSLFISVSEKSKDRGSNTIGARLNRVEDKVTQLDQRLALITDMLHQLLSLHGGSTPGSGGPPREGGAHITQPCGSGGSVDPELFLPSNTLPTYEQLTVPRRGPDEGS
[4]
  hyperpolarization of channel activation: −45 mV
